Test results taken from US9744164B2, “Neuroprotective polyphenol analogs” (Salk Institute for Biological Studies, priority 2011, dated 2017).

What follows are molecules tested on N9 microglial cells (assay: anti-inflammatory assay, LPS-induced microglial activation (NO release)). Details: bacterial lipopolysaccharide, derivative 1-10 μM, 24 hr.
Format: cell-based, mouse
Description: Anti-inflammatory assay. Mouse N9 microglial cells plated in DME with 7.5% DFCS were treated with 10 μg/ml bacterial lipopolysaccharide (Sigma) alone or in the presence of the Fisetin derivatives (1-10 μM) or Fisetin (10 μM) as a positive control. After 24 hr the medium was removed, spun briefly to remove floating cells and 100 μl assayed for NO using 100 μl of the Griess Reagent (Sigma) in a 96 well plate. After incubation for 10 min at room temperature the absorbance at 550 nm was read on a microplate reader.
Three secondary screens allowed assessment of three key activities of Fisetin that are highly relevant to stroke, as well as other neurological disorders: maintenance of glutathione (GSH), the major endogenous cellular antioxidant, inhibition of LPS-induced microglial activation, an indicator of anti-inflammatory activity and PC12 cell differentiation, a measure of neurotrophic activity. All of these activities are relevant to the nerve cell loss seen in stroke (Gelderblom, et al., Stroke. 2009, 40 (5), 1849-1857; Pandya, et al., Cent. Nerv. Syst. Agents. Med. Chem. (2011) Apr. 27; Lewerenz, et al., J. Neurochem. (2010) 113 (2), 502-504). […] To assess GSH maintenance, total intracellular GSH levels after a 24 hr treatment with the compound both in the absence and presence of glutamate, an inducer of GSH loss and oxidative stress (Tan, et al., Curr. Top. Med. Chem. (2001) 1, 497-506; Maher, et al., Free Radical Research. (2006) 40 (10), 1105-1111) was measured Inhibition of LPS-induced microglial activation was determined by treating N9 mouse microglial cells with LPS alone and in the presence of the compounds and assaying NO release into the medium 24 hr later (Zheng, et al., Int. Immunopharmacol. (2008) 8, (3), 484-494). PC12 cell differentiation was determined by treating PC12 cells with the compounds and looking at neurite outgrowth after 24 hr. In all cases, Fisetin was used as a positive control (Sagara, et al., J. Neurochem. (2004) 90, 1144-1155).
The roles of the four different hydroxyl groups in the activity of Fisetin were studied. […] Cell viability was determined after 24 hr by the MTT assay. The ability to maintain GSH (GSH) was determined by treating HT22 cells with different doses of each derivative (1-10 μM) in the presence of 5 mM glutamate. After 24 hr cell extracts were prepared and analyzed for total GSH. Fisetin (10 μM) was used as a positive control. The ability to induce PC12 cell differentiation (PC12 diff'n) was determined by treating PC12 cells in N2 medium with different doses of each derivative (1-10 μM) for 24 hr. Differentiation was assessed by visual inspection with Fisetin (10 μM) as a positive control. Anti-inflammatory activity (microglia) was assessed in N9 microglial cells treated with bacterial lipopolysaccharide alone or in the presence different doses of each derivative (1-10 μM) for 24 hr. Fisetin was used as a positive control. TEAC values, a measure of direct antioxidant activity, were determined using the ABTS+ decolorization assay.
In the case of COc1cc(/C=C/C(=O)c2ccc3ccccc3c2O)ccc1OCc1ccccc1 [CMS-063, (E)-3-(4-(benzyloxy)-3-methoxyphenyl)-1-(1-hydroxynaphthalen-2-yl)prop-2-en-1-one], the “microglia (anti-inflammatory activity)” value is reported as 9%.
COc1cc(-c2oc3c(ccc4ccccc43)c(=O)c2O)ccc1O [CMS-070, 3-hydroxy-2-(4-hydroxy-3-methoxyphenyl)-4H-benzo[h]chromen-4-one] was tested, and the “microglia (anti-inflammatory activity)” value was 78%.
In the case of O=c1c(O)c(-c2ccc(N3CCCC3)cc2)oc2c1ccc1ccccc12 [CMS-114, 3-hydroxy-2-(4-(pyrrolidin-1-yl)phenyl)-4H-benzo[h]chromen-4-one], the “microglia (anti-inflammatory activity)” value is reported as 26%.
Cc1cc2oc(-c3ccc(N4CCCC4)cc3)cc(=O)c2cc1C [CMS-116, 6,7-dimethyl-2-(4-(pyrrolidin-1-yl)phenyl)-4H-chromen-4-one] was tested, and the “microglia (anti-inflammatory activity)” value was 2%.
O=c1c(O)c(-c2ccc(O)c(O)c2)oc2ccc3ccccc3c12 [CMS-041, 3-(3,4-dihydroxyphenyl)-2-hydroxy-1H-benzo[f]chromen-1-one] was tested, and the “microglia (anti-inflammatory activity)” value was 87%.
For COc1cc(-c2ccc(N(C)C)cc2)nc2ccccc12 [CMS-109, 4-methoxy-2-(4-dimethylaminophenyl)quinoline], the “microglia (anti-inflammatory activity)” value was 62%.
With COc1ccc(-c2oc3cc(C)c(C)cc3c(=O)c2O)cc1O [CMS-092, 3-hydroxy-2-(3-hydroxy-4-methoxyphenyl)-6,7-dimethyl-4H-chromen-4-one] the “microglia (anti-inflammatory activity)” value was 72%.
With CCOc1ccc(-c2oc3cc(C)c(C)cc3c(=O)c2O)cc1OCC [CMS-025, 2-(3,4-diethoxyphenyl)-3-hydroxy-6,7-dimethyl-4H-chromen-4-one] the “microglia (anti-inflammatory activity)” value was 11%.
CN(C)c1ccc(-c2cc(=O)c3ccc4ccccc4c3o2)cc1 [CMS-120, 2-(4-(dimethylamino)phenyl)-4H-benzo[h]chromen-4-one] was tested, and the “microglia (anti-inflammatory activity)” value was 35%.
Cc1cc(O)c(C(=O)/C=C/c2ccc(O)cc2O)cc1C [CMS-087, (E)-3-(2,4-dihydroxyphenyl)-1-(2-hydroxy-4,5-dimethylphenyl)prop-2-en-1-one] was tested, and the “microglia (anti-inflammatory activity)” value was 53%.
For Cc1cc2oc(-c3ccc(O)c(O)c3)c(O)c(=O)c2cc1C [CMS-027, 2-(3,4-dihydroxyphenyl)-3-hydroxy-6,7-dimethyl-4H-chromen-4-one], the “microglia (anti-inflammatory activity)” value was 82%.
In the case of CC(C)Oc1cc(-c2ccc(O)cc2O)nc2ccccc12 [CMS-084, 4-isopropoxy-2-(2,4-dihydroxyphenyl)quinoline], the “microglia (anti-inflammatory activity)” value is reported as 64%.
With Cc1cc2oc(-c3ccc(O)cc3O)cc(=O)c2cc1C [CMS-094, 2-(2,4-dihydroxyphenyl)-6,7-dimethyl-4H-chromen-4-one] the “microglia (anti-inflammatory activity)” value was 5%.
In the case of O=c1cc(-c2ccc(N3CCCC3)cc2)oc2c1ccc1ccccc12 [CMS-115, 2-(4-(pyrrolidin-1-yl)phenyl)-4H-benzo[h]chromen-4-one], the “microglia (anti-inflammatory activity)” value is reported as 23%.
In the case of COc1cc(-c2oc3cc(C)c(C)cc3c(=O)c2O)ccc1OCc1ccccc1 [CMS-059, 2-(4-(benzyloxy)-3-methoxyphenyl)-3-hydroxy-6,7-dimethyl-4H-chromen-4-one], the “microglia (anti-inflammatory activity)” value is reported as 14%.
COc1ccc(/C=C/C(=O)c2cc(C)c(C)cc2O)cc1O [CMS-088, (E)-1-(2-hydroxy-4,5-dimethylphenyl)-3-(3-hydroxy-4-methoxyphenyl)prop-2-en-1-one] was tested, and the “microglia (anti-inflammatory activity)” value was 56%.
COc1cc(-c2cc(=O)c3cc(C)c(C)cc3o2)ccc1OCc1ccccc1 [CMS-058, 2-(4-(benzyloxy)-3-methoxyphenyl)-6,7-dimethyl-4H-chromen-4-one] was tested, and the “microglia (anti-inflammatory activity)” value was 83%.
In the case of CC(C)Oc1cc(-c2ccc(N3CCCC3)cc2)nc2ccccc12 [CMS-113, 4-isopropoxy-2-(4-(pyrrolidin-1-yl)phenyl)quinoline], the “microglia (anti-inflammatory activity)” value is reported as 67%.
For COc1cc(-c2ccc(O)cc2O)nc2ccccc12 [CMS-083, 4-methoxy-2-(2,4-dihydroxyphenyl)quinoline], the “microglia (anti-inflammatory activity)” value was 84%.
For CCOc1ccc(-c2oc3c(ccc4ccccc43)c(=O)c2O)cc1OCC [CMS-036, 2-(3,4-diethoxyphenyl)-3-hydroxy-4H-benzo[h]chromen-4-one], the “microglia (anti-inflammatory activity)” value was 13%.
For COc1cc(-c2oc3cc(C)c(C)cc3c(=O)c2O)ccc1O [CMS-069, 3-hydroxy-2-(4-hydroxy-3-methoxyphenyl)-6,7-dimethyl-4H-chromen-4-one], the “microglia (anti-inflammatory activity)” value was 77%.
CC(C)Oc1cc(-c2ccc(N(C)C)cc2)nc2ccccc12 [CMS-112, 4-isopropoxy-2-(4-dimethylaminophenyl)quinoline] was tested, and the “microglia (anti-inflammatory activity)” value was 71%.
For Cc1cc2oc(-c3ccc(N(C)C)cc3)cc(=O)c2cc1C [CMS-119, 2-(4-(dimethylamino)phenyl)-6,7-dimethyl-4H-chromen-4-one], the “microglia (anti-inflammatory activity)” value was 8%.
Cc1cc2oc(-c3ccc(O)cc3O)c(O)c(=O)c2cc1C [CMS-093, 2-(2,4-dihydroxyphenyl)-3-hydroxy-6,7-dimethyl-4H-chromen-4-one] was tested, and the “microglia (anti-inflammatory activity)” value was 0%.
COc1cc(-c2ccccc2)nc2ccccc12 [CMS-021, 4-methoxy-2-phenylquinoline] was tested, and the “microglia (anti-inflammatory activity)” value was 6%.
For COc1cc(-c2cc(=O)c3cc(C)c(C)cc3o2)ccc1O [CMS-064, 2-(4-hydroxy-3-methoxyphenyl)-6,7-dimethyl-4H-chromen-4-one], the “microglia (anti-inflammatory activity)” value was 41%.
COc1cc(-c2oc3c(ccc4ccccc43)c(=O)c2O)ccc1OCc1ccccc1 [CMS-065, 2-(4-(benzyloxy)-3-methoxyphenyl)-3-hydroxy-4H-benzo[h]chromen-4-one] was tested, and the “microglia (anti-inflammatory activity)” value was 88%.
For COc1cc(-c2cc(OC)c3ccccc3n2)ccc1O [CMS-017, 4-methoxy-2-(4-hydroxy,3-methoxyphenyl)quinoline], the “microglia (anti-inflammatory activity)” value was 90%.
